For one data set, the system named is T. b. r. Nature of the data set: CNS model in mice (2nd stage human African trypanosomiasis). The class given is in vivo. To be noted: through day 120 of an experiment slated for 180 days.
Data set [1] relates to STIB900 strain of T. b. r. The experiment in a line: Mouse model of virulent STIB900 strain of T. b. r. The class given is in vivo.
The test system of data set [2] is Trypanosoma brucei rhodesiense. The experiment in a line: In vitro anti-protozoan data, T. b. r. The class given is cell-based.
Another data set concerns Leishmania donovani. The experiment in a line: In vitro anti-protozoan data, L. d. Format: cell-based.
Another data set has as its system Plasmodium falciparum. Nature of the data set: In vitro anti-protozoan data, P. f. Format: cell-based.
Setting [3] is: Trypanosoma brucei, RHODESIENSE, in vitro, read-out: T. b. r. IC50.
The mark [4] stands for this setting: Plasmodium falciparum, in vitro, read-out: IC-50 values versus Plasmodium falciparum (p.f.).
The mark [5] stands for this setting: Plasmodium falciparum, in vitro, read-out: P. f. IC50.
Setting [6] is: in vitro, read-out: T. b. r. IC50.

SMILES strings stand for the structures. Structures can show the parent of a compound that is named as a salt. Where two headings read alike, the source gives them in different places. Bounds are passed on as bounds.

Consider `CONC(=N)c1ccc(-c2ccc(-c3ccc(C(=N)NOC)cn3)o2)cc1` [Compound 5, N-Methoxy-6-{5-[4-(N-methoxy-carbamimidoyl)-phenyl]-furan-2-yl}-nicotinamidine], for which the “parasite free mice in the CNS model” value with T. b. r. is given as “parasite free mice”. In addition, in data set [1], the “cure of virulent STIB900 strain of T. b. r. in a mouse model” value is reported as “cure”. In addition, the IC50 was 37.1 µM in data set [2] (setting [3]), 113 µM with Leishmania donovani (Leishmania donovani), under 0.01 µM with Plasmodium falciparum (setting [4]) and 0.0049 µM with Plasmodium falciparum (setting [5]).

For the molecule `N=C(N)c1ccc(-c2ccc(-c3ccc(C(=N)N)cn3)o2)nc1` [Compound 24, 2,5-Bis[5-amidine-2-pyridyl)furan], the IC50 in data set [2] (setting [6]) was 0.021 µM; with Leishmania donovani, 193 µM; with Plasmodium falciparum (in vitro, read-out: P. f. IC50), 0.083 µM.

A word on the melting point: it is the temperature of the solid-liquid transition. Regarding `N=C(NO)c1ccc(-c2ccc(-c3ccc(C(=N)NO)nc3)o2)cc1` [Compound 17, N-Hydroxy-5-{5-[4-(N-hydroxycarbamimidoyl)-phenyl]-furan-2-yl}-pyridine-2-carboxamidine], the melting point lay in the range of 276 to 279 °C. For the same molecule, the IC50 in data set [2] (setting [3]) was determined as 200 µM. In addition, in the data set with Plasmodium falciparum (setting [5]), the IC50 was over 11.7 µM.

Take `N=C(N)c1ccc(-c2ccc(-c3ccc(C(=N)N)nc3)o2)cc1` [Compound 20, 5-[5-(4-Carbamimidoyl-phenyl)-furan-2-yl]-pyridine-2-carboxamidine actate salt]: the IC50 is 0.0031 µM in data set [2] (setting [6]); 47 µM with Leishmania donovani; 0.0183 µM in the data set on Plasmodium falciparum (in vitro, read-out: P. f. IC50).

On to `N=C(NO)c1ccc(Cc2ccc(-c3ccc(C(=N)NO)cn3)o2)cc1` [Compound 36, N-Hydroxy-6-{5-[4-(N-hydroxycarbamimidoyl)benzyl]-furan-2-yl}-nicotinamidine], for which the melting point lay in the range of 214 to 216 °C.

With `CC(=O)ONC(=N)c1ccc(-c2ccc(-c3ccc(C(=N)NOC(C)=O)cn3)o2)nc1` [Compound 23, 2,5-Bis[5-(N-acetoxycarbamimidoyl)-2-pyridyl)furan], the melting point lay within 299 to 300 °C.

Regarding `CONC(=N)c1ccc(-c2ccc(-c3ccc(C(=N)NOC)cn3)s2)cc1` [Compound 12, N-Methoxy-6-{5-[4-(N-methoxy-carbamimidoyl)-phenyl]-thiophn-2-yl}-nicotinamidine], the IC50 was 9.43 µM in data set [2] (setting [6]) and 0.133 µM in the data set on Plasmodium falciparum (in vitro, read-out: P. f. IC50).

On to `Cc1cc(C(=N)NO)ccc1-c1ccc(-c2ccc(C(=N)NO)cn2)o1` [Compound 29, N-Hydroxy-6-{5-[4-(N-hydroxycarbamimidoyl)-2-methyl-phenyl]-furan-2-yl}-nicotinamidine], for which the melting point lay within 196 to 198 °C.

As to `N=C(NO)c1ccc(-c2ccc(-c3ccc(C(=N)NO)cn3)o2)nc1` [Compound 22, 2,5-Bis[5-(N-hydroxycarbamimidoyl)-2-pyridyl)furan], the melting point was 272 to 274 °C (dec.). Also, the IC50 in data set [2] (setting [3]) was determined as 55.8 µM. For the same molecule, in the data set with Leishmania donovani (Leishmania donovani), the IC50 came out at 77 µM. Besides, the IC50 in the data set with Plasmodium falciparum (setting [5]) is over 0.0102 µM.

For `CC(=O)ONC(=N)c1ccc(-c2ccc(-c3ccc(C(=N)NOC(C)=O)nc3)o2)cc1` [Compound 19, N -Acetoxy-5-{5-[4-(N-Acetoxycarbamimidoyl)-phenyl]-furan-2-yl}-pyridine-2-carboxamidine], the melting point lay within 267 to 270 °C.

Consider `N=C(NO)c1ccc(-c2ccc(-c3ccc(C(=N)NO)cn3)s2)cc1` [Compound 11, N-Hydroxy-6-{5-[4-(N-hydroxycarbamimidoyl)-phenyl]-thiophen-2-yl}-nicotinamidine], for which the melting point was 293 to 295 °C (dec.). Moreover, the IC50 in data set [2] (setting [3]) was over 187 µM. Besides, the IC50 with Leishmania donovani (Leishmania donovani) is over 187 µM. In addition, the IC50 with Plasmodium falciparum (setting [5]) was over 10.4 µM.

`CC(=O)ONC(=N)c1ccc(-c2ccc(-c3ccc(C(=N)NOC(C)=O)cc3C)o2)nc1` [Compound 30, N-Acetoxy-6-{5-[4-(N-acetoxycarbamimidoyl)-2-methyl-phenyl]-furan-2-yl}-nicotinamidine]: the melting point lay in the range of 203 to 205 °C.

`N=C(NO)c1ccc(-c2ccc(C=Cc3ccccc3)o2)nc1` [Compound 33, N-Hydroxy-6-(5-styryl-furan-2-yl)-nicotinamidine] yielded a melting point of 230 to 231 °C.

As for `N=C(N)c1ccc(-c2ccc(-c3ccc(C(=N)N)cn3)o2)cc1` [Compound 7, 6-[5-(4-Carbamimidoyl-phenyl)-furan-2-yl]-nicotinamidine], in data set [1], the “cure of virulent STIB900 strain of T. b. r. in a mouse model” value is “cure”. For the same molecule, the IC50 in data set [2] (Trypanosoma brucei, RHODESIENSE, read-out: IC-50 values versus Trypanosoma brucei rhodesiense (T.b.r.)) was under 0.01 µM; in data set [2] (setting [3]), 0.007 µM; with Leishmania donovani (Leishmania donovani), 101 µM; in the data set with Plasmodium falciparum (Plasmodium falciparum, read-out: IC-50 values versus Plasmodium falciparum (p.f.)), under 0.01 µM; in the data set with Plasmodium falciparum (Plasmodium falciparum, read-out: P. f. IC50) it was 0.0065 µM.

In the case of `CONC(=N)c1ccc(-c2ccc(-c3ccc(C(=N)NOC)nc3)o2)cc1` [Compound 18, N-Methoxy-5-{5-[4-(N-methoxycarbamimidoyl)-phenyl]-furan-2-yl}-pyridin-2-carboxamidine], the melting point fell in the range of 142 to 143 °C. Besides, in data set [2] (setting [3]), the IC50 is 6.5 µM. Besides, the IC50 with Plasmodium falciparum (setting [5]) was 8.5 µM.

Molecule `CC(=O)ONC(=N)c1ccc(Cc2ccc(-c3ccc(C(=N)NOC(C)=O)cn3)o2)cc1` [Compound 37, N-Acetoxy-6-{5-[4-(N-acetoxycarbamimidoyl)benzyl]-furan-2-yl}-nicotinamidine] gave a melting point of 194 to 196 °C.

Turning to `CONC(=N)c1ccc(-c2ccc(-c3ccc(C(=N)NOC)cn3)o2)nc1` [Compound 27, 2,5-Bis[5-(N-methoxycarbamimidoyl)-2-pyridyl)furan], the IC50 was 11.1 µM in data set [2] (setting [3]), over 166 µM with Leishmania donovani (Leishmania donovani), under 0.01 µM in the data set on Plasmodium falciparum (setting [4]) and 0.00177 µM with Plasmodium falciparum (setting [5]).

As for `N=C(NO)c1ccc(-c2ccc(-c3ccc(C(=N)NO)cn3)o2)cc1` [Compound 4, N-Hydroxy-6-{5-[4-(N-hydroxycarbamimidoyl)-phenyl]-furan-2-yl}-nicotinamidine], the IC50 in data set [2] (setting [3]) is 120 µM; with Leishmania donovani (Leishmania donovani), over 195 µM; in the data set on Plasmodium falciparum (setting [4]) it was under 0.01 µM; with Plasmodium falciparum (setting [5]), 0.0043 µM.

For the origin of these results see patent US7256203B2, “Dicationic 2,5-diarylfuran aza-analogs as anti-protozoan agents” (The University of North Carolina at Chapel Hill, priority 2002, dated 2007).
